Source: US6461997B1, “Triazole sulfones having herbicidal activity” (Monsanto Technology LLC, priority 1999, dated 2002)

Experiments:
SOLNI (black nightshade) = assay: Pre-plant incorporated (PPI) herbicidal activity, warm season; type: in vivo, Solanum nigrum; conditions: for inhibition at 10 g/ha / inhibition at 30 g/ha / inhibition at 100 g/ha / inhibition at 300 g/ha / inhibition at 900 g/ha: Solanum nigrum, PPI application, read-out: Percent inhibition SOLNI; for PPI activity (GR80) SOLNI: pre-plant incorporated, GR80 = lowest tested rate with 80% or greater inhibition, approx. 14 days after treating, 30/21° C.
Description: (§1) In another set of tests, the pre-plant incorporated (PPI) activity of compounds of this invention was evaluated on the same species as for the pre-emergence tests described above. In the PPI tests the following procedure, designed to simulate PPI application, was used.
(§2) A pre-prepared topsoil mixture (described above) was placed in a pot and compacted to a depth of 1.0 to 1.25 cm from the top of the pot. Seeds of each of several monocotyledonous and dicotyledonous annual plant species were placed on top of the soil. A sufficient quantity of soil to cover the seeds and level fill the pot was weighed into an open container. A known amount of the test compound was dissolved or suspended in an organic solvent and applied by spraying to this cover soil. The cover soil was thoroughly mixed to distribute the test compound throughout the cover soil, and was then applied as a cover layer over the seeds. Untreated soil was used as a cover layer for control pots. After treatment the plants were placed in a greenhouse where they received 0.64 cm of overhead irrigation. All subsequent watering consisted of a light overhead mist and/or subirrigation as needed for germination and growth. Tables 9 and 10 below relate to warm season plant species which were placed after pre-emergence treatment in a greenhouse with a 30/21° C. day/night temperature regime. Tables 11 and 12 below relates to cool season plant species placed after pre-emergence treatment in a greenhouse or growth chamber with an 18/13° C. day/night temperature regime. Only the compounds of Examples 1, 6, 8, 11, 13 and 15-20 were included in PPI tests.
(§3) Approximately 14 days after planting and treating, the plants were observed and herbicidal efficacy recorded as percent inhibition by comparison with untreated plants.

[1] = test system: CIRAR (canada thistle (seedling)); assay: Pre-emergence herbicidal activity, warm season; type: in vivo, Cirsium arvense; conditions: GR80 = lowest tested rate (300, 100, 30, 10 g/ha) with 80% or greater inhibition; approx. 14 days after treating; 30/21° C.
Method in brief: (§4)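 Seeds sown in sterilised fertilised topsoil received surface-applied compound in 50:50 acetone/water, typically at 300, 100, 30 and 10 g/ha, then greenhouse-grown at 30/21° C (warm-season species) or 18/13° C (cool-season species). Percent inhibition versus untreated plants was scored at about 14 days, giving GR80; an asterisk marks activity short of 80% at the top rate.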

wheat (TRZAW) = assay: Selectivity test, PPI, cool season crop; type: in vivo, Triticum aestivum; conditions: Triticum aestivum, PPI application, read-out: Percent inhibition TRZAW
Description: as §2, §3
Additional pre-emergence and PPI tests were conducted by the procedures described above, on warm and cool season weed species in the presence of crop species, to assess herbicidal selectivity. Crop species included in warm season tests were corn (Zea mays, ZEAMX), rice (Oryza sativa, ORYSA) and soybean (Glycine max, GLYMX). Crop species included in cool season tests were wheat (Triticum aestivum, TRZAW), barley (Hordeunm vulgare, HORVX) and oilseed rape (Brassica napus, BRSNS).
Tables 15 and 16 relate to pre-emergence and PPI tests respectively on warm season species. Table 17 relates to pre-emergence tests on cool season species.

[2] = test system: BRAPP (broadleaf signalgrass); assay: Pre-emergence herbicidal activity, warm season; type: in vivo, Brachiaria platyphylla; conditions: GR80 = lowest tested rate (300, 100, 30, 10 g/ha) with 80% or greater inhibition; approx. 14 days after treating; 30/21° C.
Method in brief: as §4

[3] = test system: CHEAL (common lambsquarters); assay: Pre-plant incorporated (PPI) herbicidal activity, warm season; type: in vivo, Chenopodium album; conditions: pre-plant incorporated; GR80 = lowest tested rate with 80% or greater inhibition; approx. 14 days after treating; 30/21° C.
Description: as §1, §2, §3

[4] = test system: CHEAL (common lambsquarters); assay: Pre-emergence herbicidal activity, warm season; type: in vivo, Chenopodium album; conditions: GR80 = lowest tested rate (300, 100, 30, 10 g/ha) with 80% or greater inhibition; approx. 14 days after treating; 30/21° C.
Method in brief: as §4

[5] = test system: BRAPP (broadleaf signalgrass); assay: Pre-plant incorporated (PPI) herbicidal activity, warm season; type: in vivo, Brachiaria platyphylla; conditions: for inhibition at 10 g/ha / inhibition at 30 g/ha / inhibition at 100 g/ha / inhibition at 300 g/ha / inhibition at 900 g/ha: Urochloa platyphylla, PPI application, read-out: Percent inhibition BRAPP; for PPI activity GR80, BRAPP: pre-plant incorporated, lowest tested rate with 80% or greater inhibition, about 14 days
Description: as §1, §2, §3

[6] = test system: SORHA (johnsongrass (seedling)); assay: Pre-emergence herbicidal activity, warm season; type: in vivo, Sorghum halepense; conditions: GR80 = lowest tested rate (300, 100, 30, 10 g/ha) with 80% or greater inhibition; approx. 14 days after treating; 30/21° C.
Method in brief: as §4

POROL (common purslane) = assay: Pre-emergence herbicidal activity, warm season; type: in vivo, Portulaca oleracea; conditions: GR80 = lowest tested rate (300, 100, 30, 10 g/ha) with 80% or greater inhibition; approx. 14 days after treating; 30/21° C.
Method in brief: as §4

SASKR (russian thistle) = assay: Pre-plant incorporated (PPI) herbicidal activity, cool season; type: in vivo, Salsola kali; conditions: for inhibition at 10 g/ha / inhibition at 30 g/ha / inhibition at 100 g/ha / inhibition at 300 g/ha / inhibition at 900 g/ha: Salsola kali, weed, PPI application, read-out: Percent inhibition SASKR; for PPI activity GR80, SASKR: pre-plant incorporated, lowest tested rate with 80% or greater inhibition, about 14 days
Description: as §1, §2, §3

[7] = test system: AGSST (creeping bentgrass); assay: as above; type: in vivo, Agrostis stolonifera; conditions: for inhibition at 10 g/ha / inhibition at 30 g/ha / inhibition at 100 g/ha / inhibition at 300 g/ha / inhibition at 900 g/ha: Agrostis stolonifera, weed, PPI application, read-out: Percent inhibition AGSST; for PPI activity GR80, AGSST: pre-plant incorporated, lowest tested rate with 80% or greater inhibition, about 14 days
Description: as §1, §2, §3

Work on C=C(C)CC(F)(F)S(=O)(=O)c1ncn(C(=O)N(CC)CC)n1 [Example 18] yielded an inhibition at 10 g/ha (SOLNI (black nightshade)) of 0%, an inhibition at 30 g/ha (SOLNI (black nightshade)) of 0% and an inhibition at 100 g/ha (SOLNI (black nightshade)) of 20%. The inhibition at 300 g/ha (SOLNI (black nightshade)) was 99%, the inhibition at 900 g/ha (SOLNI (black nightshade)) was 90% and the “PPI activity (GR80) SOLNI” value (SOLNI (black nightshade)) was 300 g/ha. For the same compound, the “Pre-emergence activity (GR80) CIRAR” value [1] was 300 g/ha, the inhibition at 10 g/ha (wheat (TRZAW)) was 0% and the inhibition at 30 g/ha (wheat (TRZAW)) was 0%. For the same compound, the inhibition at 100 g/ha (wheat (TRZAW)) was 0%, the inhibition at 300 g/ha (wheat (TRZAW)) was 30% and the inhibition at 900 g/ha (wheat (TRZAW)) was 60%. The “Pre-emergence activity (GR80) BRAPP” value [2] was 300 g/ha, the “PPI activity (GR80) CHEAL” value [3] was 30 g/ha and the “Pre-emergence activity (GR80) CHEAL” value [4] was 300 g/ha. For the same compound, the inhibition at 10 g/ha [5] was 0%, the inhibition at 30 g/ha [5] was 0% and the inhibition at 100 g/ha [5] was 0%. The inhibition at 300 g/ha [5] was 100%, the inhibition at 900 g/ha [5] was 100% and the “PPI activity GR80, BRAPP” value [5] was 100 g/ha. The “Pre-emergence activity (GR80) SORHA” value [6] was 100 g/ha, the “Pre-emergence activity (GR80) POROL” value (POROL (common purslane)) was 100 g/ha and the inhibition at 10 g/ha (SASKR (russian thistle)) was 0%. The inhibition at 30 g/ha (SASKR (russian thistle)) was 0%, the inhibition at 100 g/ha (SASKR (russian thistle)) was 80% and the inhibition at 300 g/ha (SASKR (russian thistle)) was 80%. For the same compound, the inhibition at 900 g/ha (SASKR (russian thistle)) was 100%, the “PPI activity GR80, SASKR” value (SASKR (russian thistle)) was 30 g/ha and the inhibition at 10 g/ha [7] was 100%. For the same compound, the inhibition at 30 g/ha [7] was 60%, the inhibition at 100 g/ha [7] was 100% and the inhibition at 300 g/ha [7] was 99%. The inhibition at 900 g/ha [7] was 100% and the “PPI activity GR80, AGSST” value [7] was 10 g/ha.

C=C(Br)CC(F)(F)S(=O)(=O)c1ncn(C(=O)N(CC)CC)n1 [Example 19] gave an inhibition at 10 g/ha (SOLNI (black nightshade)) of 0%, an inhibition at 30 g/ha (SOLNI (black nightshade)) of 0% and an inhibition at 100 g/ha (SOLNI (black nightshade)) of 0%. The inhibition at 300 g/ha (SOLNI (black nightshade)) was 40%, the inhibition at 900 g/ha (SOLNI (black nightshade)) was 90% and the “PPI activity (GR80) SOLNI” value (SOLNI (black nightshade)) was 100 g/ha. The “Pre-emergence activity (GR80) CIRAR” value [1] was 300 g/ha, the inhibition at 10 g/ha (wheat (TRZAW)) was 0% and the inhibition at 30 g/ha (wheat (TRZAW)) was 0%. For the same compound, the inhibition at 100 g/ha (wheat (TRZAW)) was 30%, the inhibition at 300 g/ha (wheat (TRZAW)) was 70% and the inhibition at 900 g/ha (wheat (TRZAW)) was 60%. The “Pre-emergence activity (GR80) BRAPP” value [2] was 300 g/ha, the “PPI activity (GR80) CHEAL” value [3] was 100 g/ha and the “Pre-emergence activity (GR80) CHEAL” value [4] was 100 g/ha. It also gave an inhibition at 10 g/ha [5] of 0%, an inhibition at 30 g/ha [5] of 0% and an inhibition at 100 g/ha [5] of 30%. The inhibition at 300 g/ha [5] was 100%, the inhibition at 900 g/ha [5] was 100% and the “PPI activity GR80, BRAPP” value [5] was 300 g/ha. For the same compound, the “Pre-emergence activity (GR80) SORHA” value [6] was 100 g/ha, the “Pre-emergence activity (GR80) POROL” value (POROL (common purslane)) was 300 g/ha and the inhibition at 10 g/ha (SASKR (russian thistle)) was 0%. It also gave an inhibition at 30 g/ha (SASKR (russian thistle)) of 0%, an inhibition at 100 g/ha (SASKR (russian thistle)) of 0% and an inhibition at 300 g/ha (SASKR (russian thistle)) of 60%. For the same compound, the inhibition at 900 g/ha (SASKR (russian thistle)) was 95%, the “PPI activity GR80, SASKR” value (SASKR (russian thistle)) was 30 g/ha and the inhibition at 10 g/ha [7] was 60%. The inhibition at 30 g/ha [7] was 90%, the inhibition at 100 g/ha [7] was 100% and the inhibition at 300 g/ha [7] was 90%. The inhibition at 900 g/ha [7] was 100% and the “PPI activity GR80, AGSST” value [7] was 10 g/ha.
